Test results from the NIST ThermoML archive (doi:10.1021/je060271a).

Details: 343.15 K, Liquid, Vibrating tube method

CCCC(=O)OCC(COC(=O)CCC)(COC(=O)CCC)COC(=O)CCC [pentaerythritol tetrabutyrate]
Details	mass density [kg/m3]
20390 kPa	1023.3
20430 kPa	1023.3
20478 kPa	1023.4
20526 kPa	1023.4
20575 kPa	1023.5
20625 kPa	1023.5
20668 kPa	1023.6
20718 kPa	1023.5
20770 kPa	1023.6
20824 kPa	1023.8
20870 kPa	1023.6
20921 kPa	1023.6
20960 kPa	1023.7
20996 kPa	1023.8
21033 kPa	1023.8
21064 kPa	1023.8
21100 kPa	1023.9
21137 kPa	1023.9
21173 kPa	1023.9
21204 kPa	1023.9
21241 kPa	1024
21279 kPa	1024
21316 kPa	1024.1
21354 kPa	1024.1
21386 kPa	1024.2
21424 kPa	1024.1
21463 kPa	1024.1
21495 kPa	1024.1
21534 kPa	1024.1
21572 kPa	1024.2
21612 kPa	1024.2
21645 kPa	1024.2
21684 kPa	1024.3
21723 kPa	1024.3
21763 kPa	1024.3
21802 kPa	1024.2
21835 kPa	1024.3
21876 kPa	1024.4
21916 kPa	1024.4
21956 kPa	1024.4
21990 kPa	1024.5
22030 kPa	1024.5
22071 kPa	1024.4
22112 kPa	1024.5
22146 kPa	1024.5
22187 kPa	1024.5
22220 kPa	1024.6
22268 kPa	1024.5
22310 kPa	1024.7
22344 kPa	1024.7
22387 kPa	1024.8
22429 kPa	1024.7
22472 kPa	1024.8
22507 kPa	1024.8
22548 kPa	1024.8
22591 kPa	1024.7
22634 kPa	1024.9
22670 kPa	1024.9
22714 kPa	1025
22756 kPa	1025
22799 kPa	1024.9
22842 kPa	1025
22886 kPa	1024.9
22970 kPa	1025.2
23014 kPa	1025.2
23052 kPa	1025.2
23097 kPa	1025.2
23142 kPa	1025.2
23180 kPa	1025.2
23226 kPa	1025.3
23270 kPa	1025.4
23317 kPa	1025.4
23355 kPa	1025.3
23400 kPa	1025.4
23447 kPa	1025.5
23494 kPa	1025.6
23535 kPa	1025.4
23582 kPa	1025.6
23630 kPa	1025.6
23676 kPa	1025.6
23716 kPa	1025.7
23763 kPa	1025.7
24094 kPa	1025.8
24137 kPa	1026
24186 kPa	1026
24236 kPa	1025.8
24278 kPa	1026.1
24328 kPa	1026
24379 kPa	1026
24431 kPa	1026.1
24484 kPa	1026.1
24528 kPa	1026.2
24578 kPa	1026.2
24621 kPa	1026.3
24665 kPa	1026.2
24708 kPa	1026.3
24745 kPa	1026.3
24788 kPa	1026.3
24833 kPa	1026.2
24870 kPa	1026.4
24915 kPa	1026.4
24959 kPa	1026.4
25004 kPa	1026.4
25049 kPa	1026.5
25086 kPa	1026.6
25132 kPa	1026.5
25176 kPa	1026.6
25223 kPa	1026.7
25270 kPa	1026.7
25308 kPa	1026.7
25354 kPa	1026.8
25401 kPa	1026.7
25439 kPa	1026.8
25486 kPa	1026.9
25532 kPa	1026.7
25579 kPa	1026.8
25625 kPa	1026.9
25665 kPa	1027
26228 kPa	1027.4
26277 kPa	1027.4
26328 kPa	1027.3
26378 kPa	1027.4
26422 kPa	1027.5
26476 kPa	1027.5
26521 kPa	1027.6
26574 kPa	1027.5
26957 kPa	1027.8
27040 kPa	1027.8
27084 kPa	1027.9
27121 kPa	1027.9
27166 kPa	1028
27211 kPa	1027.9
27248 kPa	1027.9
27293 kPa	1028
27331 kPa	1028.1
27416 kPa	1028.1
27462 kPa	1028.2
27508 kPa	1028.2
27548 kPa	1028.2
27598 kPa	1028.2
27639 kPa	1028.3
27688 kPa	1028.2
27761 kPa	1028.4
27799 kPa	1028.6
27832 kPa	1028.3
27872 kPa	1028.4
27905 kPa	1028.5
27944 kPa	1028.4
27976 kPa	1028.5
28014 kPa	1028.6
28054 kPa	1028.6
28087 kPa	1028.5
28127 kPa	1028.6
28281 kPa	1028.7
28314 kPa	1028.6
28355 kPa	1028.7
28389 kPa	1028.6
28430 kPa	1028.9
28465 kPa	1028.7
28506 kPa	1028.8
28548 kPa	1028.9
28583 kPa	1028.8
28623 kPa	1028.9
28658 kPa	1029
28700 kPa	1028.9
28735 kPa	1029.1
28776 kPa	1029
28818 kPa	1029
28853 kPa	1029.1
28895 kPa	1029.1
28938 kPa	1029.2
28973 kPa	1029.2
29016 kPa	1029.2
29052 kPa	1029.3
29095 kPa	1029.1
29138 kPa	1029.2
29173 kPa	1029.4
29217 kPa	1029.4
29262 kPa	1029.3
29299 kPa	1029.4
29344 kPa	1029.3
29386 kPa	1029.4
29417 kPa	1029.3
29455 kPa	1029.4
29492 kPa	1029.5
29524 kPa	1029.5
29563 kPa	1029.6
29744 kPa	1029.6
29776 kPa	1029.7
29815 kPa	1029.6
29847 kPa	1029.7
29886 kPa	1029.7
29926 kPa	1029.8
29959 kPa	1029.8
29999 kPa	1029.8
30033 kPa	1030
30073 kPa	1029.8
30115 kPa	1029.9
30149 kPa	1029.9
30190 kPa	1029.9
30494 kPa	1030.1
30523 kPa	1030.1
30557 kPa	1030.2
30591 kPa	1030.2
30621 kPa	1030.3
30656 kPa	1030.2
30685 kPa	1030.1
30721 kPa	1030.3
30750 kPa	1030.3
30945 kPa	1030.3
30981 kPa	1030.5
31016 kPa	1030.3
31046 kPa	1030.5
31082 kPa	1030.5
31111 kPa	1030.5
31147 kPa	1030.5
31176 kPa	1030.6
31212 kPa	1030.4
31249 kPa	1030.7
31280 kPa	1030.7
31317 kPa	1030.6
31347 kPa	1030.6
31384 kPa	1030.8
31414 kPa	1030.8
31451 kPa	1030.8
31487 kPa	1030.8
31518 kPa	1030.8
31554 kPa	1030.8
31590 kPa	1030.9
31621 kPa	1030.9
31658 kPa	1031
31688 kPa	1030.9
31725 kPa	1030.9
31763 kPa	1031
31794 kPa	1031
31831 kPa	1030.9
31867 kPa	1031.1
31898 kPa	1031.1
31934 kPa	1031.1
31970 kPa	1031
32008 kPa	1031.1
32044 kPa	1031.1
32074 kPa	1031.1
32111 kPa	1031.4
32149 kPa	1031.2
32255 kPa	1031.2
32292 kPa	1031.2
32329 kPa	1031.2
32367 kPa	1031.2
32398 kPa	1031.5
32436 kPa	1031.5
32474 kPa	1031.3
32512 kPa	1031.3
32544 kPa	1031.4
32582 kPa	1031.4
32621 kPa	1031.5
32660 kPa	1031.4
32699 kPa	1031.6
32731 kPa	1031.5
32769 kPa	1031.5
32808 kPa	1031.6
32846 kPa	1031.6
32919 kPa	1031.6
32958 kPa	1031.8
33037 kPa	1031.7
33070 kPa	1031.8
33110 kPa	1031.7
33151 kPa	1031.7
33191 kPa	1031.8
33231 kPa	1032
33264 kPa	1031.8
33304 kPa	1032.1
33345 kPa	1032.1
33379 kPa	1032
33420 kPa	1032.1
33461 kPa	1032.1
33502 kPa	1032.1
33951 kPa	1032.4
33995 kPa	1032.4
34033 kPa	1032.3
34080 kPa	1032.5
34127 kPa	1032.4
34177 kPa	1032.6
34220 kPa	1032.5
34271 kPa	1032.6
34323 kPa	1032.5
34368 kPa	1032.6
34420 kPa	1032.7
34453 kPa	1032.7
34484 kPa	1032.7
34510 kPa	1032.7
34517 kPa	1032.7
34520 kPa	1032.8
